Entries after “also recorded” stand apart in the source; their conditions may differ. Ends that are not written are not given here.
Key:
[1] = tested on: human clinical breast cancers; assay: Peptide overlay assay on frozen tumor sections; assay type: binding; settings: two clinical breast cancers
Experimental: (§1) B16F1 mouse melanoma, Lewis lung carcinoma, C8161 human melanoma, MDA-MB-435 human breast cancer, and PPC-1 human prostate cancer cells (American Type Culture Collection) were maintained in RPMI or DMEM supplemented with 10% FCS. Human tumor cells (1×10^6) were injected into the mammary fat pad or the flank of nude BALB/c nu/nu mice to induce tumors. MMTV PyMT mice were provided by Dr. Robert Oshima (Burnham Institute for Medical Research, La Jolla, Calif.). The MMTV PyMT mice develop breast cancer under the influence of a polyoma middle T antigen driven by the mouse tumor virus promoter (Siegel, P. M., Ryan, E. D., Cardiff, R. D., Muller W. J. (1999) EMBO J., 18, 2149-64). […]
(§2) The mice were perfused through the heart 3 hours after the peptide injection and tissues removed for examination. […] Tissue fluorescence was quantified using Image-Pro Plus software. At least two images from representative microscopic fields were analyzed from each tissue sample and data from individual mice that received the same treatment (n=2-8) were pooled.

[2] = tested on: B16F1 tumors; assay: Homing to B16F1 tumors in wild type, fibrinogen knockout and plasma fibronectin-deficient mice; assay type: in vivo, mouse
Excerpt: Knockout mice were employed to study the role of fibrin(ogen) and fibronectin in the homing of the CLT peptides to tumors. Fibrinogen knockout mice are viable (Palumbo, J. S., Kombrinck, K. W., Drew, A. F., Grimes, T. S., Kiser, J. H. Jay L. Degen, J. L. & Bugge, T. H. (2000), Blood 96, 3302-3309) and were used as tumor recipients. Complete absence of fibronectin is lethal, but mice that lack plasma fibronectin can be generated by postnatally deleting the fibronectin gene in the liver (Sakai, T., Johnson, K. J., Murozono, M., Sakai, K., Magnuson, M. A., Wieloch, T., Cronberg, T., Isshiki, A., Erickson, H. P., & Fassler R. (2001) Nat. Med. 7, 324-30). The CLT peptides homed to B16F1 tumors grown in wild type C57BL/6 mice (n=10) producing a fibrillar meshwork (CLT1; FIG. 3D). In contrast, only faint, evenly distributed fluorescence was present in tumors (n=4) grown in the fibrinogen knockout mice (which lack the ability to produce fibrin) (FIG. 3E). […] Unlike in the fibrinogen knockout mice, there was no residual peptide binding to the tumors in the plasma fibronectin-deficient mice (FIG. 3H).
as §1, with “Calif.).” for “Calif.). The MMTV PyMT mice develop breast cancer under the influence of a polyoma middle T antigen driven by the mouse tumor virus promoter (Siegel, P. M., Ryan, E. D., Cardiff, R. D., Muller W. J. (1999) EMBO J., 18, 2149-64).”
as §2

[3] = tested on: orthotopic MDA-MB-435 xenograft tumors; assay: Tumor homing of i.v. injected fluorescein-conjugated peptides, MDA-MB-435 xenografts; assay type: in vivo, mouse
Excerpt: To determine whether the CLT peptides would recognize clotted plasma proteins in vivo, the peptides were synthesized as fluorescein conjugates and imaged their accumulation in tumors. Mice bearing orthotopic MDA-MB-435 xenograft tumors were intravenously injected with fluorescein-conjugated CLT1 (n=6), CLT2 (n=4), or a control peptide (n=4) with the sequence KAREC (SEQ ID NO: 5).
B16F1 mouse melanoma, Lewis lung carcinoma, C8161 human melanoma, MDA-MB-435 human breast cancer, and PPC-1 human prostate cancer cells (American Type Culture Collection) were maintained in RPMI or DMEM supplemented with 10% FCS. Human tumor cells (1×10^6) were injected into the mammary fat pad or the flank of nude BALB/c nu/nu mice to induce tumors. MMTV PyMT mice were provided by Dr. Robert Oshima (Burnham Institute for Medical Research, La Jolla, Calif.). The MMTV PyMT mice develop breast cancer under the influence of a polyoma middle T antigen driven by the mouse tumor virus promoter (Siegel, P. M., Ryan, E. D., Cardiff, R. D., Muller W. J. (1999) EMBO J., 18, 2149-64). B16F1 tumors induced by injecting 1×10^6 cells subcutaneously were grown in the flank of fibrinogen knock-out mice (Suh, T. T., Holmback, K., Jensen, N. J., Daugherty, C. C., Small, K., Simon, D. I., Potter, S., & Degen, J. L. (1995) Genes Dev. 9, 2020-2033), and of transgenic plasma fibronectin-deficient C57BL/6-Fn(f1/f1) Mx-Cre^+ (Sakai, T., Johnson, K. J., Murozono, M., Sakai, K., Magnuson, M. A., Wieloch, T., Cronberg, T., Isshiki, A., Erickson, H. P., & Fassler R. (2001) Nat. Med. 7, 324-30) and their wild type littermates. Deletion of the fibronectin gene in the liver was induced by poly(I):poly(C) (Yi, M., Sakai, T., Fassler, R., & Ruoslahti, E. (2003) Proc. Natl. Acad. Sci. USA. 100, 11435-11438). Frozen human tissues from clinical breast cancers were provided by the Western Division of the NCI Cooperative Human Tissue Network (Vanderbilt University Medical Center, Nashville, Tenn.).
Peptides were synthesized and conjugated to fluorescein isothiocyanate as described (Laakonen et al. PNAS 2004), and cyclized by exposure to air.
Imaging under a blue light, and examination of the distribution of fluorescein-conjugated peptides after tail vein injection have been described (Hoffman, R. M. (2005) Nature Reviews Cancer 5, 796-806; Laakkonen, P., Akerman, M. E., Biliran, H., Yang, M., Ferrer, F., Karpanen, T., Hoffman, R. M., & Ruoslahti E. (2004) Proc. Natl. Acad. Sci. USA 101, 9381-6).
The imaging methods are briefly described as follows: A Leica fluorescence stereomicroscope, model LZ12, equipped with a 50-W mercury lamp, was used for high-magnification imaging. Selective excitation of GFP was produced through a D425y60 band-pass filter and 470 DCXR dichroic mirror. Emitted fluorescence was collected through a long-pass filter GG475 (Chroma Technology, Brattleboro, Vt.) on a Hamamatsu C5810 3-chip cooled color charge-coupled device camera (Hamamatsu Photonics Systems, Bridgewater, N.J.). Images were processed for contrast and brightness and analyzed with the use of IMAGE PRO PLUS 3.1 software (Media Cybernetics, Silver Springs, Md.). Images of 1,024×724 pixels were captured directly on an IBM PC or continuously through video output on a high-resolution Sony VCR model SLV-R1000 (Sony, Tokyo). Imaging at lower magnification that visualized the entire animal was carried out in a light box illuminated by blue light fiber optics (Lightools Research, Encinitas, Calif.) and imaged by using the thermoelectrically cooled color charge-coupled device camera, as described above (Yang, M., Baranov, E., Jiang, P., Sun, F-X., Li, X-M., Li, L., Hasegawa, S., Bouvet, M., Al-Tuwaijri, M., Chishima, T., et al (2000) Proc. Natl. Acad. Sci. USA 97, 1206-11).
The mice were perfused through the heart 3 hours after the peptide injection and tissues removed for examination. […]

[4] = 500 μg fluorescein-conjugated peptide i.v., 3 h

CGLIIQKNEC (also: cyclic, ring type not given here, fluorescein conjugate, site not given here) [CLT1, cyclic decapeptide from phage library screened on plasma clots; tested as fluorescein conjugate]
overlay binding [1]: positive
homing to B16F1 tumors ([2]; plasma fibronectin-deficient mice): negative
homing to B16F1 tumors ([2]; wild type C57BL/6 mice): produce a fluorescent meshwork
homing to B16F1 tumors ([2]; wild type littermates of plasma fibronectin-deficient mice): homes
fluorescence in control / healthy organs [3, 4]: not in control organs
fluorescence in tumors, whole tissues under blue light [3, 4]: intense fluorescence; also recorded: strong fluorescence
histological distribution of peptide fluorescence within the tumor ([3]; fluorescein-conjugated peptide i.v., 3 h, 400×): distributed in a network pattern
tumor homing / fluorescence on co-injection with unlabeled CLT2 ([3]; unlabeled CLT2 in 5 fold excess): strongly reduced

Source: patent publication US9522198B2, “Methods and compositions related to targeting tumors and wounds” (Sanford-Burnham Medical Research Institute, priority 2006, dated 2016)
